Test results reported in patent US10603357B2, “Therapeutic TREM-1 peptides” (Universite de Lorraine, priority 2004, dated 2020).

Assays:
Type in all cases: in vivo, mouse
BALB/c mice = test: endotoxin-induced septic shock in mice, hP5 (Example 5); conditions: 200 microliters peptide i.p. at −1 h, 0 h, +4 h, 200 microg LPS i.p., 15 mice per group
Procedure: Septic shock was induced in male Balb/c mice (n=15/group) with […] of LPS as described in Material and Methods. hP5 peptide or control were administered at the following time points: −1 h, 0 h, +1 h+4 h. Mortality was followed twice a day for 7 days. Data were analysed using GraphPad Prism Survival curve analysis.
For the experiment, male BALB/c mice (19-21 g) were randomly grouped (15 mice per group) and injected intraperitoneally (i.p.) with 200 microg of LPS from E. coli 0111:B4 (Sigma). A blinded investigator performed all injections. 200 microliters of TREM-1 peptides dissolved in water 10% DMSO, 9% Solutol were administered intraperitoneally at −1 h, 0 h, +1 h, +4 h prior and after LPS injection. Viability of treated mice was monitored twice a day for 7 days.

C57BL/6 mice = test: Cecal Ligation and Puncture model in mice, hP5 (Example 6); conditions: 200 μl i.p. at −1 h, 0 h, +4 h and +24 hours; n=15/group
Procedure: Mortality was followed twice a day for 10 days. Data were analyzed using GraphPad Prism Survival curve analysis.
For the experiment the mice underwent a standardized preparation for laparotomy (anaesthesia with 2% inhaled isoflurane in oxygen, shaving with animal clippers, alcohol scrub). A 1 cm incision was made on the midline. The cecum was exposed and will be tightly ligated at 50-80% over its base with a 4-0 silk suture avoiding bowel obstruction. The cecum was then punctured once with a 23G needle. The cecum was gently squeezed until feces be just visible through the puncture, and placed again in the abdominal cavity. The incision was thereafter be closed with a 4-0 silk. 200 μl of hP5 or its scrambled peptide control were freshly dissolved in water 10% DMSO, 9% solutol and injected intraperitoneally with a 22 G needle at the following time points: −1, 0, +4, +24. No fluid resuscitation was administered.
Survival and Moribundity were observed twice a day for 10 days.

mice = test: DSS colitis model in mice, hP5 (Example 7)
Procedure: On day 0 of the study, the water supply was removed and replaced with 3% Dextran Sulfate Sodium (DSS) From day 0 to day 6, this solution was the only source of fluids. Water was administered for the rest of the experiment (day 7-11). Healthy controls received water only.
From day 3 to day 10 mice were treated with either hP5, or a sequence-scrambled control peptide. Peptides were dissolved in DMSO at 10 mg/ml and stored at +4° C. Before administration, the stock solution was diluted 1:10 in water 10% Solutol® HS 15 (BASF). Final vehicle concentrations: 1% DMSO, 10% solutol in water. 200 μl of these freshly prepared solutions of hP5, its scrambled control or vehicle were injected intraperitoneally with a 25 G needle.
Animals were weighted daily and monitored on days 3, 4, 5, 6, 7 and 10 for rectal bleeding and stool consistency. For each group, the disease activity index (DAI) was determined by evaluating changes in weight, stool consistency and presence of gross blood during the study, as described below:
To determine the presence of occult blood in stool, a pea-sized stool sample was placed on a slide. Then two drops of reagent (Hemocult Sensa, Beckman Coulter) were placed onto the stool sample on the slide and a change of colour was observed. The presence of occult blood was graded using a score of 0 for no colour; 1 for a very light blue (+/−) colour taking over 30 seconds to appear, 2 for a blue colour developing in […] (+); 3 for an immediate change in colour (++) and 4 for gross blood observable on the slide.
On day 11 mice were euthanized by cervical dislocation to allow colon length evaluation. An incision was done in the abdomen to expose the colon. The stool in the colon was removed flushing with saline. The entire colon from cecum to anus was removed and the length was measured and reported as colon length (cm).
Data were analyzed using Graph Pad Prism. Results are given as means±standard error of the mean. The BW score, stool score and blood score were analyzed using two-way ANOVA test, Bonferroni post test. Colon length was analysed using one-way ANOVA, Dunn's post test. *P≤0.05; **P≤0.01; ***P≤0.001

Sequence: LQVEDSGLYQCVIYQPP (listed as Homo sapiens) [hP5]
- animals alive 7 days after LPS injection (BALB/c mice): 80%
- mice alive at 10 days after CLP (C57BL/6 mice): 66.6%
- mice surviving at 72 hours after CLP (C57BL/6 mice): 73.3%
- Disease Activity Index (DAI) score (mice; 3% DSS day 0-6, peptide i.p. daily from day 3, day 5, mean ± standard error): 1.95±0.170
- DAI inhibition compared to DSS+vehicle or DSS+scrambled peptide (mice; day 5): ~50%
- Stool score (stool consistency) (mice; day 10, mean ± standard error): 0.71±0.474
- blood score (haemoccult / gross blood) (mice; day 10, mean ± standard error): 0.43±0.202
- weight loss, expressed as a score (mice; day 10, mean ± standard error): 2.00±0.436
- colon length (mice; day 11, mean ± standard error): 7.41±0.237 cm
